Assay results as given in patent US8541471B2, “Water-soluble strontium salts for use in treatment of cartilage and/or bone conditions” (Osteologix A/S, priority 2003, dated 2013).
Read-outs that look alike come from different tables or passages of the source.

Assays:
[1] = molecular target: T1, calcium-sensing receptor (CaR) (Homo sapiens, UniProt P41180); settings: studies have shown; cited from earlier work
T1 sequence (P41180 20-1078): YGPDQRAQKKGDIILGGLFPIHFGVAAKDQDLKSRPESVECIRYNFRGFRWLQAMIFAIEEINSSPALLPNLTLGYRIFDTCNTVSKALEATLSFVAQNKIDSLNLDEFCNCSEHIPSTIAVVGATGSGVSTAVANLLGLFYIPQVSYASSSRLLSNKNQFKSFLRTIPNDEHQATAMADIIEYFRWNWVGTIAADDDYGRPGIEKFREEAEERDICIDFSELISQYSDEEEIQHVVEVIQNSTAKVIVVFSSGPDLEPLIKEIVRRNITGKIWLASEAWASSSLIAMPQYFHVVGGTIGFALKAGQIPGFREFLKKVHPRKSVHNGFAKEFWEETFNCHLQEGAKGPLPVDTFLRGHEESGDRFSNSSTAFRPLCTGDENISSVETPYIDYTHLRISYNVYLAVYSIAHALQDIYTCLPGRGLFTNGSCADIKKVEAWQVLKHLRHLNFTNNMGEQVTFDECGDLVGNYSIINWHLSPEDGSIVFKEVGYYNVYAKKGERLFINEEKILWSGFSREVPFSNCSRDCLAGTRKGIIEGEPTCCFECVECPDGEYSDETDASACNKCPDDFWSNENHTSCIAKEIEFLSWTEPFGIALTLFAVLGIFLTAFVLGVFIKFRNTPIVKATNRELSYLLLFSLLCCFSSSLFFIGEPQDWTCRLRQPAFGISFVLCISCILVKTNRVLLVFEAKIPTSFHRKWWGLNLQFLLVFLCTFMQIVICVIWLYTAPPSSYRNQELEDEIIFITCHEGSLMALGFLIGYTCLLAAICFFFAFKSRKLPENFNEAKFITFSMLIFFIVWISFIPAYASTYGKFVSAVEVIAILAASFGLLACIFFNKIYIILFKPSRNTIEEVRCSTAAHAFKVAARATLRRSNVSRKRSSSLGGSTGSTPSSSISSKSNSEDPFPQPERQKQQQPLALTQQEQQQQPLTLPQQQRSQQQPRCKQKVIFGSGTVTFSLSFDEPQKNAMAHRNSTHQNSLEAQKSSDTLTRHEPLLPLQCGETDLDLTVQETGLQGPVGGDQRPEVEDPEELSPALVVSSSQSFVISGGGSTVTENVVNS

[2] = not given; remark: listed apart in the source

O=C([O-])/C=C\C(=O)[O-].[Sr+2] [Maleate, strontium maleate]
SOLUBILITY AT 40° C. pH 7.5: 1457 mg/L
SOLUBILITY AT ROOM TEMPERATURE (22-24° C.) pH 7.5: 1680 mg/L

[Sr+2] [strontium]
activity at the calcium-sensing receptor (CaR) [1]: full agonist

N[C@@H](CCC(=O)[O-])C(=O)[O-].O.O.O.O.O.O.[Sr+2] [L-glutamate, strontium glutamate hexahydrate]
AUC ([2]; female, Wistar HanTac:WH (GALAS), rat, in vivo, po): 10100 mg·min/L
rate of metabolism (second peak of model fit) ([2]; rat, in vivo): rests longer in the serum

N#Cc1c(N(CC(=O)[O-])CC(=O)[O-])sc(C(=O)[O-])c1CC(=O)[O-].[Sr+2].[Sr+2] [Ranelate, distrontium salt of 2-[N,N-di(carboxymethyl)amino]-3-cyano-4-carboxymethylthiophene-5-carboxylic acid, reference compound]
SOLUBILITY AT 40° C. pH 7.5: 1970 mg/L
SOLUBILITY AT ROOM TEMPERATURE (22-24° C.) pH 7.5: 890 mg/L
time to maximum serum strontium concentration ([2]; rat, in vivo, po): approximately 2 hours

O=C([O-])/C=C/C(=O)[O-].[Sr+2] [Fumerate, strontium fumarate]
SOLUBILITY AT 40° C. pH 7.5: 977 mg/L
SOLUBILITY AT ROOM TEMPERATURE (22-24° C.) pH 7.5: 1215 mg/L

strontium alpha-ketoglutarate [α-ketogluterate]
rate of metabolism (second peak of model fit) ([2]; rats, FIGS. 9A-B): quickly metabolized

[Cl-].[Cl-].[Sr+2] [Chloride, strontium chloride, reference compound]
AUC ([2]; rat, in vivo, po): 7300 mg·min/L
time to maximum serum strontium concentration ([2]; rats, single oral gavage): approximately 2 hours
